Calls of active or inactive are those of the source. No cut-off for these calls is given here.
Key:
[1] = test system: Rattus norvegicus; assay: Antiallergic activity in rat reaginic passive cutaneous anaphylaxis (PCA) test upon intravenous administration; type: functional; settings: read-out: ID50 (the source's name)
[2] = test system: Rattus norvegicus; assay: Antiallergic activity in rat reaginic passive cutaneous anaphylaxis (PCA) test upon peroral administration; type: functional; settings: po, read-out: ID50 (the source's name)
[3] = test system: Rattus norvegicus; assay: Antiallergic activity in rat reaginic passive cutaneous anaphylaxis (PCA) test upon intravenous administration; Insoluble; type: functional, organism-based
[4] = test system: Rattus norvegicus; assay: Antiallergic activity in rat reaginic passive cutaneous anaphylaxis (PCA) test upon peroral administration; NA means inactive; type: functional, organism-based

Row | Compound | ED50 [1] [µmol/kg] | ED50 [2] [µmol/kg] | ID50 [3] | ID50 [4]
1 | CC1CCC(=NNc2ccccc2C(=O)O)c2ncc(C(=O)NO)c(=O)n21 (centres undefined) | > 100 | > 100 |  | 
2 | Cc1cccc(NN=C2CCC(C)n3c2ncc(C(=O)O)c3=O)c1C (centres undefined) |  | > 100 | Insoluble | 
3 | CC1CCC(=NNc2ccc3ccccc3c2)c2ncc(C(=O)O)c(=O)n21 (centres undefined) | 0.77 | > 100 |  | 
4 | Cc1cccc(Cl)c1NN=C1CCC(C)n2c1ncc(C(=O)O)c2=O (centres undefined) |  | > 100 | Insoluble | 
5 | CCOC(=O)c1cnc2n(c1=O)C(C)CCC2=NNc1c(C)n(C)n(-c2ccccc2)c1=O (centres undefined) | 95 | > 100 |  | 
6 | Cc1c(NN=C2CCC(C)n3c2ncc(C(=O)O)c3=O)c(=O)n(-c2ccccc2)n1C (centres undefined) | 31 | > 100 |  | 
7 | CCc1nc2n(c(=O)c1C(=O)O)C(C)CCC2=NNc1ccccc1 (centres undefined) | > 100 | > 320 |  | 
8 | CC1CCC(=NNc2cccnc2)c2ncc(C(=O)O)c(=O)n21 (centres undefined) | 0.54 | > 320 |  | 
9 | CC1CCC(=NNc2cc([N+](=O)[O-])cc([N+](=O)[O-])c2)c2ncc(C(=O)O)c(=O)n21 (centres undefined) | 3.4 | > 100 |  | 
10 | CC1CCC(=NNc2ccccc2)c2ncc(C(=O)NO)c(=O)n21 (centres undefined) | > 100 | > 100 |  | 
11 | CC1CCC(=NNc2ccc3c(c2)OCO3)c2ncc(C(=O)O)c(=O)n21 (centres undefined) | 0.33 | > 100 |  | 
12 | COc1cc(OC)c(NN=C2CCC(C)n3c2ncc(C(=O)O)c3=O)cc1Cl (centres undefined) |  | > 100 | Insoluble | 
13 | CC1CCC(C)(N=Nc2ccccc2C(=O)O)c2ncc(C(=O)O)c(=O)n21 (centres undefined) | > 100 | > 100 |  | 
14 | Cc1nc2n(c(=O)c1C(N)=O)C(C)CCC2=NNc1ccccc1 (centres undefined) |  | > 100 | Insoluble | 
15 | CC1CCC(=NNc2cc(C(F)(F)F)cc(C(F)(F)F)c2)c2ncc(C(=O)O)c(=O)n21 (centres undefined) |  | > 100 | Insoluble | 
16 | CC1CCC(=NNc2ccc(Br)cc2Cl)c2ncc(C(=O)O)c(=O)n21 (centres undefined) |  | > 100 | Insoluble | 
17 | Cc1cc(NN=C2CCC(C)n3c2ncc(C(=O)O)c3=O)ccc1Br (centres undefined) |  | > 100 | Insoluble | 
18 | O=C(O)c1cc(=O)c2c(OCC(O)COc3cccc4oc(C(=O)O)cc(=O)c34)cccc2o1 [CROMOLYN SODIUM] | 1 |  |  | inactive
19 | Cc1cc(C)c(NN=C2CCC(C)n3c2ncc(C(=O)O)c3=O)cc1C (centres undefined) |  | 320 | Insoluble | 
20 | CNN=C1CCC(C)n2c1ncc(C(=O)O)c2=O (centres undefined) | 17.5 | > 100 |  | 
21 | CC1CCC(=NNc2cc(Cl)cc(Cl)c2)c2ncc(C(=O)O)c(=O)n21 (centres undefined) | 13.3 | > 100 |  | 

Row | Compound | ED50 [1] [µmol/kg] | ED50 [2] [µmol/kg] | ID50 [3] | ID50 [4]
22 | CC1CCC(N=Nc2ccccc2C(=O)O)=C2N(C)C=C(C(=O)O)C(=O)N21 (centres undefined) | > 100 | > 100 |  | 
23 | CC1CCC(=NNc2ccccn2)c2ncc(C(=O)O)c(=O)n21 (centres undefined) | 3.2 | > 100 |  | 
24 | Cc1ccc(NN=C2CCC(C)n3c2ncc(C(=O)O)c3=O)cc1C (centres undefined) | 6.5 | > 100 |  | 
25 | Cc1cc(C)cc(NN=C2CCC(C)n3c2ncc(C(=O)O)c3=O)c1 (centres undefined) |  | > 320 | Insoluble | 
26 | CC1CCC(=NNc2ccc(Cl)cc2Cl)c2ncc(C(=O)O)c(=O)n21 (centres undefined) |  | > 100 | Insoluble | 
27 | CC1CCC(C)(N=Nc2ccccc2)c2ncc(C(=O)O)c(=O)n21 (centres undefined) | 35 | > 100 |  | 
28 | Cc1cccc(C)c1NN=C1CCC(C)n2c1ncc(C(=O)O)c2=O (centres undefined) |  | 320 | Insoluble | 
29 | COc1cc(NN=C2CCC(C)n3c2ncc(C(=O)O)c3=O)cc(OC)c1 (centres undefined) | 0.42 | 100 |  | 
30 | Cc1nc2n(c(=O)c1C(=O)O)C(C)CCC2=NNc1ccccc1 (centres undefined) | > 100 | > 320 |  | 
31 | CC1CCC(N=Nc2ccccc2)=C2N(C)C=C(C(=O)O)C(=O)N21 (centres undefined) |  | > 100 | Insoluble | 
32 | CC1CCC(=NNc2nn[nH]n2)c2ncc(C(=O)O)c(=O)n21 (centres undefined) | > 100 | > 100 |  | 
33 | CC1CCC(=NN(C)c2ccccc2)c2ncc(C(=O)O)c(=O)n21 (centres undefined) | 52.4 | > 100 |  | 
34 | CC1CC/C(=N\N)c2ncc(C(=O)O)c(=O)n21 (centres undefined) | 42 | > 100 |  | 
35 | CC1CCC(=NNc2cccc3ccccc23)c2ncc(C(=O)O)c(=O)n21 (centres undefined) |  | > 320 | Insoluble | 
36 | CC1CCC(=NNc2ccccc2C(=O)O)c2ncc(C(=O)O)c(=O)n21 (centres undefined) | 0.48 | > 100 |  | 
37 | Cc1cc(C)c(NN=C2CCC(C)n3c2ncc(C(=O)O)c3=O)c(C)c1 (centres undefined) |  | 320 | Insoluble | 
38 | CC1CCC(=NNc2c(Cl)cccc2Cl)c2ncc(C(=O)O)c(=O)n21 (centres undefined) |  | > 100 | Insoluble | 
39 | CC1CCC(=NNc2ccc(Cl)c(Cl)c2)c2ncc(C(=O)O)c(=O)n21 (centres undefined) | 0.89 | > 100 |  | 
40 | CC1CCC(=NNc2ccccc2)c2ncc(C(=O)O)c(=O)n21 (centres undefined) | 0.6 | 1.2 |  | 
41 | CC1CCC(=NNc2cc(Cl)ccc2O)c2ncc(C(=O)O)c(=O)n21 (centres undefined) |  | > 100 | Insoluble | 
42 | CCc1nc2n(c(=O)c1C(N)=O)C(C)CCC2=NNc1ccccc1 (centres undefined) |  | > 100 | Insoluble | 
